System: monkey corneal endothelial cells
Test: Adhesion of cultured monkey corneal endothelial cells with fasudil, CellTiter-Glo Luminescent Cell Viability Assay
Type: cell-based, Macaca fascicularis
Conditions: fasudil 10 μM, passage-cultured cells
Description: From the corneal tissue isolated from Macaca fascicularis euthanized, Descemet's membrane with corneal endothelial cells attached thereto was separated. The Descemet's membrane was incubated together with Dispase II (1.2 U/ml, Roche Applied Science) under the conditions of 37° C., 5% CO2 for 45 min, and the corneal endothelial cells were mechanically separated by a pipetting operation. The separated corneal endothelial cells were centrifuged and passage-cultured in a medium for corneal endothelium. As the medium for corneal endothelium, the same cell culture medium as in Example 1 was used. The cultured monkey corneal endothelial cells collected during the passage culture by a 0.05% trypsin treatment were separated and centrifuged, and stirred to the same concentration in a medium for corneal endothelium added with fasudil (10 μM, SIGMA-ALDRICH) in the fasudil group and in a medium for corneal endothelium without addition of fasudil in the control group, and the cells were seeded on a 96 well plate at a density of about 2000 cells per well. At 24 hr from the start of the culture, the adhered cells were counted using CellTiter-Glo (registered trade mark) Luminescent Cell Viability Assay (Promega) (FIG. 17).

**Q.** Which “cell adhesion of corneal endothelial cells at 24 hr, compared to control group” value does the source give for `O=S(=O)(c1cccc2cnccc12)N1CCCNCC1` [fasudil, 1-(5-isoquinolinesulfonyl)homopiperazine] here?
**A.** effect of promoted cell adhesion of the corneal endothelial cells was also found
